Data published in ChEMBL document CHEMBL5728170, “Substituted pyrrolizine compounds and uses thereof” (2020).

Assay: HBV DNA Quantification Assay: A HepG2 cell line overexpressing the HBV virus attachment receptor sodium-taurocholate cotransporting polypeptide (NTCP) was grown to confluency in DMEM growth medium, Dulbecco's Modified Eagle Medium without sodium pyruvate (Life Technologies, Rockville, Md.) supplemented with 10% FBS (Thermo Scientific, Waltham, Md.), 1% penicillin/streptomycin (Life Technologies, Rockville, Md.) and 2 mM L-glutamine (Life Technologies, Rockville, Md.) in T175 flasks. Cells were infected with HBV AD38 viral particles (Texcell, Frederick, USA) at 4000 genome equivalents per cell. After allowing viral infection to take place for 4 days, the infected cells were harvested from the flasks by trypsinization, washed twice with OptiMEM (Life Technologies, Rockville, Md.) and re-suspended in DMEM containing 2% FBS and 1% DMSO at a density of 0.25E6 cells/ml. Infected cells were seeded on 384 well collagen coated plates (Greiner, Austria) at a density of 20,000 cells/well containing serially diluted compounds of the present disclosure or DMSO (0.5%) in a final volume of 80 μl. The assay plates were incubated for a period of 5 days and the antiviral activity of the test compounds were assayed by detecting the presence of HBV DNA in the culture supernatant using the QuantiGene™ 2.0 nucleic acid quantification kit (Affymetrix, Santa Clara, Calif.).The culture supernatant was harvested and treated with lysis buffer containing Proteinase K (Affymetrix, Santa Clara, Calif.). The supernatant was incubated with HBV viral DNA specific probes (Affymetrix, Santa Clara, Calif.) for 30 minutes at 55° C. This was followed by addition of 0.2M NaOH for 30 minutes at room temperature to denature the DNA, followed by addition of Neutralization buffer (Affymetrix, Santa Clara, Calif.). The resulting lysed and neutralized supernatant was then added to QuantiGene™ 2.0 384 well plates coated with capture oligonucleotides and incubated overnight at 55° C. The HBV specific probe set consists of Capture Extender oligonucleotides (CE's) and blocking probes. Following the overnight incubation, the wells were incubated for one hour sequentially with a Pre-Amplifier, Amplifier and Labeled probes conjugated to alkaline phosphatase with a wash step between incubations. After the final wash step, the alkaline phosphatase substrate (Luminol APS5) was added and the resulting luminescence signal was read in an EnVision Multilabel Plate Reader (PerkinElmer, Santa Clara, Calif.). The EC50 values were calculated from the fit of the dose-response curves to a four-parameter equation.

Row | SMILES | EC50
1 | CC(NC(=O)C(=O)c1c(Cl)c(C(=O)Nc2ccc(F)c(C#N)c2)n2c1CCC2)C(F)(F)F (centres undefined) | 27.1 nM
2 | Cc1c(C(=O)C(=O)NC2(C(=O)N3CC4(C3)CN(S(C)(=O)=O)C4)CC(F)(F)C2)c2n(c1C(=O)Nc1ccc(F)c(C#N)c1)CCC2 | 112 nM
3 | Cc1c(C(=O)C(=O)NC2(C(=O)N3CC4(COC4)C3)CC(F)(F)C2)c2n(c1C(=O)Nc1ccc(F)c(C#N)c1)CCC2 | 32.3 nM
4 | CNC(=O)C1(NC(=O)C(=O)c2c(C)c(C(=O)OC)n3c2C[C@H]2C[C@H]23)CC(F)(F)C1 | 8.8 nM
